Patent publication US20190083462A1, “PREVENTION OF NSAID ENTEROPATHY WITH MICROBIOTA-DERIVED TRYPTOPHAN-METABOLITE” (THE TEXAS A&M UNIVERSITY SYSTEM, priority 2016, published 2019)

Assays:
[1] = tested on: C57BL/6J mice; assay: Fecal calprotectin ELISA; assay type: in vivo; conditions: feces, day 6 vs day 0; once daily gavage
Experimental: (§1) Eight- to 10-week-old specific-pathogen-free C57BL/6J mice were purchased and allowed to acclimate for 2 weeks. Mice were fed standardized laboratory rodent diet and sterile water ad libitum. […] Mice were then rehoused on the basis of treatment group assignment, with 5 animals/group-cage. To induce NSAID enteropathy, mice in group 1 were gavaged once daily with indomethacin (5 mg/kg; for 7 days; Sigma Aldrich, St. Louis, Mo.) dissolved in dimethylysulfoxide (DMSO) (Sigma Aldrich, St. Louis, Mo.) and further diluted in phosphate buffered saline (PBS). […] Sigma Aldrich, St. Louis, Mo.) dissolved in sterile water warmed to 55° C. […] All mice were gavaged with equal volumes (200 μL) and equal concentrations of DMSO (0.001%). Feces were collected daily by placing individual animals in sterile plastic cups that were RNase- and DNase-free until they passed feces. The mice were immediately returned to their home cages and the feces immediately flash frozen at -80° C. All animals were euthanized via CO2 asphyxiation on day 8 (i.e., after 7 days of treatment). […] Life Technologies, Carlsbad, Calif.), homogenized, and prepared as a single cell suspension for flow cytometric analysis as previously described (Wang […]. Measuring bacterial load and immune responses in mice infected with Listeria monocytogenes. Journal of Visualized Experiments: JoVE 2011). […]

[2] = tested on: C57BL/6J mice; assay: Histology and small intestinal morphometric measurements; assay type: in vivo
Experimental: Eight- to 10-week-old specific-pathogen-free C57BL/6J mice were purchased and allowed to acclimate for 2 weeks. Mice were fed standardized laboratory rodent diet and sterile water ad libitum. […] Mice were then rehoused on the basis of treatment group assignment, with 5 animals/group-cage. To induce NSAID enteropathy, mice in group 1 were gavaged once daily with indomethacin (5 mg/kg; for 7 days; Sigma Aldrich, St. Louis, Mo.) dissolved in dimethylysulfoxide (DMSO) (Sigma Aldrich, St. Louis, Mo.) and further diluted in phosphate buffered saline (PBS). […] All mice were gavaged with equal volumes (200 μL) and equal concentrations of DMSO (0.001%).
The slides were scored as previously described for intestinal inflammation (Jia Q, Lupton J R, Smith R, Weeks B R, Callaway E, Davidson L A, Kim W, Fan Y Y, Yang P, Newman R A, et al. Reduced colitis-associated colon cancer in Fat-1 (n-3 fatty acid desaturase) transgenic mice. Cancer Research 2008; 68:3985-91). Briefly, mucosal injury was determined by the following parameters scored from 0 (no evidence) to 3 (marked): mucosal ulceration, mucosal erosion, and presence of squamified epithelium. Inflammatory changes were scored similarly based on the following parameters: lymphocytic infiltration, plasma cell infiltration, and neutrophilic infiltration. Finally, an overall evidence of injury score was used to document total injury graded from 0 (none) to 4 (marked). Morphological parameters were obtained from digitally scanned slides using SPOT vr 5.0 software. Three sets of measurements from 3 separate sections were recorded for each animal by an observer blinded to treatment group. Measurements consisted of villus height, crypt depth, and submucosal mural thickness.

[3] = tested on: fecal tryptophan metabolites; assay: Fecal tryptophan metabolites by LC-MS; assay type: in vivo, mice; conditions: for Magnitude of change in fecal concentration between Days 0 and 7: group effect ↑
Excerpt: Eight- to 10-week-old specific-pathogen-free C57BL/6J mice were purchased and allowed to acclimate for 2 weeks. Mice were fed standardized laboratory rodent diet and sterile water ad libitum. Mice were randomly divided into the following 4 groups (n=5 mice/group): 1) NSAID (indomethacin); 2) indole; 3) NSAID+indole; and, 4) untreated controls. Mice were then rehoused on the basis of treatment group assignment, with 5 animals/group-cage. To induce NSAID enteropathy, mice in group 1 were gavaged once daily with indomethacin (5 mg/kg; for 7 days; Sigma Aldrich, St. Louis, Mo.) dissolved in dimethylysulfoxide (DMSO) (Sigma Aldrich, St. Louis, Mo.) and further diluted in phosphate buffered saline (PBS). Mice in group 2 received indole by gavage (20 mg/kg; once daily for 7 days; Sigma Aldrich, St. Louis, Mo.) dissolved in sterile water warmed to 55° C. Mice in group 3 received indole co-administered with indomethacin by gavage at the dosages described above. All mice were gavaged with equal volumes (200 μL) and equal concentrations of DMSO (0.001%).
Feces were collected daily by placing individual animals in sterile plastic cups that were RNase- and DNase-free until they passed feces. The mice were immediately returned to their home cages and the feces immediately flash frozen at −80° C. All animals were euthanized via CO2 asphyxiation on day 8 (i.e., after 7 days of treatment). The small intestine was harvested, opened longitudinally, rinsed with ice-cold PBS, and the distal ⅓ of the intestinal mucosa was scraped for tissue gene expression analysis. The remaining small intestine was fixed in 4% paraformaldehyde, Swiss-rolled, paraffin-embedded, and stained with hematoxylin and eosin. The spleen and mesenteric lymph nodes (MLN) were harvested, and immediately placed in ice cold RPMI-1640-c+10% fetal calf serum (FCS: Life Technologies, Carlsbad, Calif.), homogenized, and prepared as a single cell suspension for flow cytometric analysis as previously described (Wang N, Strugnell R, Wijburg O, Brodnicki T. Measuring bacterial load and immune responses in mice infected with Listeria monocytogenes. Journal of Visualized Experiments: JoVE 2011).
Metabolites from the fecal contents were extracted using a solvent-based method as previously described (Sridharan G V, Choi K, Klemashevich C, Wu C, Prabakaran D, Pan L B, Steinmeyer S, Mueller C, Yousofshahi M, Alaniz R C, et al. Prediction and quantification of bioactive microbiota metabolites in the mouse gut. Nature Communications 2014; 5:5492). Briefly, fecal pellets were homogenized using a homogenizer (Omni International) with equal volume of cold methanol and half volume of chloroform. The samples were then centrifuged at 10,000 g at 4° C. (Thermo Fisher Scientific) for 10 min. Supernatant was passed through a 70-μm sterile nylon cell strainer (Falcon) and 0.6 ml of ice cold water was added. The samples were vortex and centrifuged again at 10,000 g for 5 minutes. The upper phase and lower phase were collected and 400 μl of upper phase was dried to a pellet using a vacufuge (Eppendorf, Hauppauge, N.Y.), and then reconstituted in 50 μl of methanol/water (1:1, v/v). The samples were stored at −80° C. until analysis. Tryptophan metabolites in the samples were detected and quantified on a triple quadrupole linear ion trap mass spectrometer (3200 QTRAP, AB SCIEX, Foster City, Calif.) coupled to a binary pump HPLC (Prominence LC-20, Shimazu, Concord, Ontario, Canada).

[4] = tested on: CD11b- and GR-1-positive cells (i.e., neutrophils); assay: Flow cytometry of spleen and mesenteric lymph nodes; assay type: in vivo, mice; conditions: after 7 days of treatment
Experimental: as §1

Q: Which fecal calprotectin levels [1] does the source give for `COc1ccc2c(c1)c(CC(=O)O)c(C)n2C(=O)c1ccc(Cl)cc1` [NSAID, indomethacin] here?
A: The fecal calprotectin levels was “significantly different from day 0 calprotectin”.

Q: And the microscopic pathology scores ([2]; Swiss-rolled H & E stained small intestinal sections, n=5/group)?
A: Its microscopic pathology scores is “significant difference from control”.

Q: What about the “effect on the large intestine” value ([2]; data not shown) of the same compound?
A: The value was “negligible effect”.

Q: And the “ratio of villus height to crypt depth” value ([2]; small intestinal mucosa)?
A: The value was “significantly decreased”.

Q: What about the “Magnitude of change in fecal concentration between Days 0 and 7” value (“Magnitude of change” for short) ([3]; 5-Hydroxyindole) of the same compound?
A: The value was 27.2.

Q: And the “Magnitude of change” value ([3]; 5-Hydroxytryptamine)?
A: The value was 13.9.

Q: What about the “Magnitude of change” value ([3]; Indole) of the same compound?
A: The value was 6.7.

Q: What about the “Magnitude of change” value ([3]; Serotonin) of the same compound?
A: The value was 1.6.

Q: And the “Magnitude of change” value ([3]; Tyramine)?
A: The value was 6.7.

Q: And the “fecal indole concentrations relative to controls” value ([3]; feces)?
A: Its value is “significantly more indole”.

Q: What about the “tyramine fecal concentration by treatment group” value ([3]; feces) of the same compound?
A: Its value is “significant increase”.

Q: And the “percentage of CD11b- and GR-1-positive cells (neutrophils) in the mesenteric lymph nodes (MLN)” value [4]?
A: Its value is “significant increase”.

Q: And the “percentage of CD11b- and GR-1-positive cells (neutrophils) in the spleen” value [4]?
A: Its value is “significant increase”.
